{"source": "paper PMC12557383", "about": "“Development of a Potent and Functional In Vivo Peptide Competitive Inhibitor for the Toxin MazF” (Journal of Medicinal Chemistry, 2025)", "molecules": {"B1": {"name": "MazE (E. coli antitoxin) (natural protein, UniProt P0AE72 1-82, looked up)", "chain": "MIHSSVKRWGNSPAVRIPATLMQALNLNIDDEVKIDLVDGKLIIEPVRKEPVFTLAELVNDITPENLHENIDWGEPKDKEVW", "notes": "also called full-length MazE; the antitoxin"}, "B2": {"name": "Small Antitoxin of MazF (SamF), synthetic peptide Ac-SHLFWAQFDEYF-NH2 (peptide)", "peptide": "Ac-SHLFWAQFDEYF-NH2", "notes": "also called synthetic SamF; the synthetic peptide; source: synthetic peptide (microwave-assisted solid phase, RP-HPLC purified)"}, "B3": {"name": "SamF D9K mutant peptide (peptide)", "peptide": "Ac-SHLFWAQFKEYF-NH2", "notes": "the substitution is still to be applied; source: synthetic peptide"}, "B4": {"name": "MazF_(E24A) (E. coli toxin MazF with glutamic acid 24 replaced with alanine, His6 tag removed) (enzyme)", "chain": "MVSRYVPDMGDLIWVDFDPTKGSAQAGHRPAVVLSPFMYNNKTGMCLCVPCTTQSKGYPFEVVLSGQERDGVALADQVKSIAWRARGATKKGTVAPEELQLIKAKINVLIG", "notes": "For NMR the same construct was 15N or 15N/13C labelled; also called the toxin; source: E. coli BL21 (DE3) RIL, purified (Ni-NTA, TEV cleavage, second Ni-NTA, SEC); not shown: His6, N-terminal, cleaved"}}, "key": {"[1]": {"assay": "CD spectroscopy, α-helix content by K2D2 deconvolution", "assay_type": "physicochemical", "conditions": "0.25 mg/mL in 10 mM NaHPO4, CD deconvolution with K2D2", "description": "CD spectra were recorded in a Jasco 815 spectropolarimeter with a 0.25 mg/mL concentrated sample of SamF in 10 mM NaHPO4 buffer. CD spectra were recorded with 1 nm data pitch, 1 s of integration time, scanning speed of 50 nm/min, and wavelength range from 200 to 260 nm. The final spectrum is the average of eight accumulations. The peptide spectrum was subtracted from that of the buffer and smoothed by the Savitzky-Golay method."}, "[2]": {"molecular_target": "T1, MazFE24A (Escherichia coli, UniProt P0AE70, E24A)", "T1 construct": "His6 (N, cleaved yes); made in house; host or cells: E. coli BL21 (DE3) RIL", "T1 sequence (P0AE70 1-111 E24A)": "B4 chain", "assay": "Isothermal titration calorimetry (ITC), binding to MazFE24A", "conditions": "peptide into MazFE24A, pH about 7.10, one set of sites model", "description": "Experiments were performed in a Malvern VP-ITC microcalorimeter with a reference offset of 15 μcal s^–1, syringe speed of 250 rpm, preinjection delay of 300 s, and a recording interval of 2 s. The thermodynamic parameters of binding were obtained by fitting the experimental thermogram (Origin 7.0 software) to the “one set of sites” model supplied by the equipment after subtracting the heat of dilution. […] Titrations of MazFE24A with SamF were carried out by 20 injections of 15 μL of SamF (225 μM) to a 28 μM MazFE24A solution contained in the calorimetric cell. Samples of MazFE24A and SamF were prepared in the same buffer with a final pH of about 7.10 (30 mM NaHPO4, 4 mM NH4HCO3, 60 mM NaCl, 0.3 mM EDTA, and 2.4 mM DTT)."}, "[3]": {"molecular_target": "T2, His^6-MazF (Escherichia coli, UniProt P0AE70)", "T2 construct": "made in house", "T2 sequence (P0AE70 1-111)": "B4 chain with A24E", "assay": "His6-MazF enzyme activity with fluorescence-suppressed chimeric DNA/RNA substrate", "assay_type": "biochemical", "description": "Toxin activity was assessed with a chimeric DNA/RNA substrate labeled with a fluorophore on the 5′ end and a quencher on the 3′ end (Tables S1–S13) as described. The reaction was performed in 50 mM Tris, pH 7, containing 1 mM EDTA in a 96-well plate and in a final volume of 100 μL. The buffer was initially equilibrated at 35 °C, and His^6-MazF was added to a final concentration of 0.75 μM. Inhibitors were incubated with His^6-MazF for 20 min/35 °C before the reaction was started with 0.5 μM of substrate. Fluorescence intensity was recorded every half minute for 90 min on a SpectraMax Paradigm spectrometer (Molecular Devices) at 35 °C with an excitation wavelength of 488 nm and detection at 520 nm. The fluorescence values of all reactions were subtracted from that of the negative control containing only buffer and substrate. The highest fluorescence value obtained for the reaction catalyzed by His^6-MazF was set to 1, and the fluorescence values obtained for all other reactions were normalized relative to this.\nThe mechanism of inhibition of the toxin by SamF was determined by measuring the initial enzyme-catalyzed ACA site hydrolysis rates (v 0) in the absence and presence of increasing concentrations of the inhibitor. The concentration of His^6-MazF was 0.75 μM. V 0 was considered as the slope of the catalytic curve (fluorescence increase per time) at the initial moments of the reaction up to a maximum of 5 min, after the addition of the substrate. The Lineweaver–Burk graph was generated by plotting the reciprocal of v 0 as a function of the reciprocal of the substrate concentration in the presence of different amounts of inhibitor.\nThe IC50 value for the inhibition of MazF was calculated by measuring the v 0 as described above in the presence of different concentrations of the inhibitor. The concentration of His^6-MazF was 0.75 μM, and that of the substrate was 0.5 μM."}, "[4]": {"molecular_target": "T1, MazFE24A", "assay": "Competition ligand binding by displacement ITC (MazE vs SamF)", "conditions": "50 μM MazE titrated into 10 μM MazFE24A with 0, 10 or 30 μM SamF", "from_the_text": "Raw heats were integrated and fitted by a least-squares algorithm to the “one set of sites” model to calculate thermodynamic parameters after subtracting the heat of dilution."}, "[5]": {"assay": "Solubility of the purified peptide", "assay_type": "physicochemical"}, "[6]": {"molecular_target": "T3, MazF_(E24A) (E. coli toxin MazF with glutamic acid 24 replaced with alanine, His6 tag removed) (E. coli, UniProt P0AE70 1-111, E24A)", "assay": "ITC"}, "[7]": {"molecular_target": "T3, MazF_(E24A) (E. coli toxin MazF with …)", "assay": "ITC; in presence of 10 uM SamF"}, "[8]": {"molecular_target": "B4", "assay": "ITC; MazE (50 μM) in the syringe, 20 injections of 8 μL into 10 μM MazF_(E24A) in the cell; 50 mM NaHPO4 pH 7, 100 mM NaCl, 0.5 mM EDTA, 4 mM DTT; one set of sites model", "conditions": "both partners purified"}, "[9]": {"molecular_target": "T3, MazF_(E24A) (E. coli toxin MazF with …)", "assay": "ITC; in presence of 30 uM SamF"}, "[10]": {"molecular_target": "T4, His^6-MazF (wild-type E. coli toxin MazF) (E. coli, UniProt P0AE70 1-111)", "T4 sequence": "B4 chain with A24E", "assay": "cell-based or functional assay"}, "[11]": {"molecular_target": "B4", "assay": "ITC; SamF (225 μM) in the syringe, 20 injections of 15 μL into 28 μM MazF_(E24A) in the cell; 30 mM NaHPO4, 4 mM NH4HCO3, 60 mM NaCl, 0.3 mM EDTA, 2.4 mM DTT, pH about 7.10; one set of sites model; average of two independent experiments", "conditions": "both partners purified"}, "[12]": {"molecular_target": "B4", "conditions": "both partners purified"}, "[13]": {"molecular_target": "T3, MazF_(E24A) (E. coli toxin MazF with …)", "assay": "ITC", "remark": "listed apart in the source"}, "[14]": {"molecular_target": "the molecule itself", "assay": "SEC-MALS; Superdex 75 10/300 GL in NMR buffer; 100 μL of 200 μM MazF_(E24A) alone or with an equimolar concentration of SamF"}, "[15]": {"conditions": "SamF: average of two independent experiments"}}, "note": "Changes are numbered by the printed parent chain. In names and notes the source's numbering stands. Several values for one entry are separate records, joined by “and”; a condition that tells them apart may be missing. Equal entries are not always repeated."}
{"molecule": "Ac-SHLFWAQFDEYF-NH2 [SamF]", "values": [{"measurement": "α-helix content", "setting": "[1]; pH 7.0, 25 °C", "result": 82.6, "unit": "%"}, {"measurement": "α-helix content", "setting": "[1]; pH 7.6, 25 °C", "result": 39.11, "unit": "%"}, {"measurement": "α-helix content", "setting": "[1]; pH 8.0, 25 °C", "result": 23.36, "unit": "%"}, {"measurement": "TΔS", "setting": "[2]; [15]", "result": "-3.9 kcal/mol and -3.9 ± 1.9 kcal/mol"}, {"measurement": "ΔH", "setting": "[2]; [15]", "result": "-11.8 ± 1.6", "unit": "kcal/mol"}, {"measurement": "Mechanism of inhibition (Lineweaver–Burk)", "setting": "[3]; 0.75 μM His6-MazF, increasing substrate and inhibitor concentrations, Vmax unaffected, KM enhanced", "result": "competitive inhibition"}, {"measurement": "Inhibition of His6-MazF in whole E. coli cell lysate (result in words)", "setting": "[3]; in the presence of about 0.5 μg of E. coli proteins", "result": "still efficiently able to inhibit"}, {"measurement": "Competition with MazE for binding to MazF (result in words)", "setting": "[4]", "result": "compete for binding to MazF"}, {"measurement": "Solubility at neutral pHs (result in words)", "setting": "[5]; neutral pH", "result": "low solubility"}, {"measurement": "Solubility at pHs 8–9 (result in words)", "setting": "[5]; pH 8–9", "result": "highly soluble"}]}
{"molecule": "Ac-SHLFWAQFKEYF-NH2 [SamF_D9K]", "values": [{"measurement": "protein:peptide complex stoichiometry (N)", "setting": "[2]", "result": "1.0 ±0.1"}, {"measurement": "TΔS", "setting": "[2]; [15]", "result": "-2.8 ± 0.9", "unit": "kcal/mol"}, {"measurement": "Inhibition of His6-MazF catalysis (result in words)", "setting": "[3]; 0.75 μM His6-MazF, 0.5 μM substrate, 50 mM Tris pH 7, 35 °C, 20 min preincubation, fluorescence over 90 min", "result": "still able to prevent MazF catalysis"}]}
{"molecule": "B1", "values": [{"measurement": "Kd", "setting": "[6]", "result": 5, "unit": "nM"}, {"measurement": "Kd", "setting": "[7]", "result": 6, "unit": "nM"}, {"measurement": "dH", "setting": "[8]", "result": "-25.6 ± 1.7", "unit": "kcal/mol"}, {"measurement": "stoichiometry N", "setting": "[8]", "result": 0.5}, {"measurement": "Kd", "setting": "[9]", "result": 2, "unit": "nM"}]}
{"molecule": "B2", "values": [{"measurement": "IC50 of inhibition of His6-MazF (0.75 μM) cleavage of a fluorescence-suppressed DNA–RNA chimeric substrate (0.5 μM)", "setting": "[10]", "result": 2170, "unit": "nM"}, {"measurement": "Kd", "setting": "[11]", "result": "2500 ± 700", "unit": "nM"}, {"measurement": "dH", "setting": "[11]", "result": -11.8, "unit": "kcal/mol"}, {"measurement": "stoichiometry N", "setting": "[11]", "result": 1}]}
{"molecule": "B3", "values": [{"measurement": "fold change of KD against SamF", "setting": "[12]", "result": 2, "unit": "fold"}, {"measurement": "Kd", "setting": "[13]", "result": 6600, "unit": "nM"}]}
{"molecule": "B4", "values": [{"measurement": "stoichiometry N", "setting": "[14]", "result": 2}]}
